According to patent publication US20250281479A1, “TREATMENT OF CAVERNOUS ANGIOMAS WITH A 4-SUBSTITUTED PIPERIDINE DERIVATIVE” (Neurelis, Inc., priority 2024, published 2025):
Read-outs that look alike come from different tables or passages of the source.

Experiment: first-in-human single ascending dose and food-effect study, plasma pharmacokinetics
Type: in vivo
Details: for Vd/F: read-out: Vz/F; for Tmax: median, read-out: Tmax
Text: This was a first-in-human, single center, randomized, double-blind, placebo-controlled, single ascending dose (SAD) study, including a food-effect assessment, in healthy male and female subjects. Up to 44 subjects were included in the study.
The study consisted of 4 sequential cohorts of 8 subjects each (6 active and 2 placebo), randomly assigned to receive a single oral dose of NRL-1049 or matching-placebo under fasting state on Day 1 (See Table 2). In each cohort, a sentinel group of 2 subjects (1 active and 1 placebo) were dosed at least 24 hours prior to enrolling the remaining subjects of the cohort, contingent on the safety profile observed during sentinel dosing, as defined by medical judgment.
Subjects were admitted to the clinical research unit (CRU) on Day −1. On Day 1, following an overnight fast, subjects received a single oral dose of their assigned study treatment. Safety, PK, and exploratory biomarker assessments were performed prior to dosing and at assigned time points during study confinement. Subjects were permitted to leave the CRU following the completion of the 48-hour PK postdose sampling and safety assessments. A safety follow-up phone call was performed on Day 8 (±1 day).
Furthermore, a food-effect assessment was integrated into Cohort 3, in which a single oral 150 mg dose of NRL-1049 or placebo was administered to 12 subjects (10 active and 2 placebo) under fed state in Period 2 (refer to schedule of food-effect Cohort 3 in Table 3). After completion of Period 1 and a washout period of at least 14 days, Cohort 3 subjects repeated the screening procedures to ensure they still met the inclusion and exclusion criteria prior to readmission to the CRU for Period 2. Subjects dosed in Period 1 and who returned for Period 2 (a maximum of 6 active and 2 placebo) were administered the same single oral dose in Period 2 under fed state. In addition, at least 4 new subjects were enrolled in Period 2 only, in order to dose a total of 12 subjects (10 active and 2 placebo), in a 1:1 ratio of male to female. If a subject dosed in Period 1 was unable to return for Period 2, a new subject was enrolled to ensure dosing a total of 12 subjects in Period 2. Newly enrolled subjects only received the study drug in the fed state, and as such were not required to undergo Period 1 activities. There was no sentinel approach in Period 2.
Study drugs (NRL-1049 or placebo) were administered in the morning. The date and time of each dose was recorded. For each subject, all scheduled postdose activities and assessments were performed relative to the time of study drug administration. An oral dose of the assigned formulation was administered to subjects with approximately 240 mL of water at ambient temperature. The capsule(s) were swallowed whole and not chewed or broken. Food and fluid intake other than water were controlled for each confinement period and all subjects. In Cohorts 1, 2, 3 (Period 1), and 4, water was permitted as needed except from 1 hour predose until 1 hour after dosing. In Period 2 of Cohort 3, water was permitted as needed throughout the confinement period. For cohorts under fasting state, subjects were required to fast (abstain from food) for at least 10 hours prior to dosing and for at least 4 hours following dosing. In Period 2 of the food-effect cohort only, following an overnight fast of at least 10 hours, subjects received a standardized high-fat, high-calorie meal 30 minutes prior to study drug administration. An example meal would consist of 2 eggs fried in butter, 2 strips of bacon, 2 slices of toast with butter, 4 ounces of hash brown potatoes, and 8 ounces of whole milk. […] Subjects had to eat the total content of this meal in 30 minutes or less. For all cohorts, a standardized lunch was served at least 4 hours after dosing. A supper, light snack, and other meals were served at appropriate times thereafter, but not until after 9 hours postdose. […]

[1] = 150 mg NRL-1049, fed compared to fasting state
[2] = 25 to 250 mg NRL-1049, fasting conditions

**Q.** Which results are given for C[C@@H](N)C1CCN(S(=O)(=O)c2cccc3cnccc23)CC1 [NRL-1049]?
**A.** food effect on mean AUC0-T and AUCinf [1]: greater in the fed state; food effect on mean Cmax [1]: decreased; food effect on mean apparent clearance [1]: greater in the fasting state; food effect on mean apparent volume of distribution [1]: greater in the fed state; food effect on mean elimination half-life [1]: slightly increased; time up to which mean concentrations were quantifiable (25-mg dose, fasting state): up to 2 hours; manner of increase of AUC0-T with dose [2]: greater than dose proportional; manner of increase of AUC0-Tmax with dose [2]: dose proportional; manner of increase of AUCinf with dose [2]: greater than dose proportional; manner of increase of Cmax with dose [2]: dose proportional; time up to which mean concentrations were quantifiable (75-mg dose, fasting state): ≤ 4 h; time up to which mean concentrations were quantifiable (150- and 250-mg doses, fasting state): ≤ 8 h; time up to which mean concentrations were quantifiable (150-mg dose, fed state): up to 12 hours; AUC(0-t) (both sexes, human, plasma, oral, range over dose range 25 to 250 mg NRL-1049, fasting state, read-out: mean AUC0-T): 3.03 to 76.5 ng·h/mL; AUC (both sexes, human, plasma, oral, range over dose range 25 to 250 mg NRL-1049, fasting state, read-out: mean AUC0-Tmax): 1.26 to 8.73 ng·h/mL; AUC(0-inf) (both sexes, human, plasma, oral, range over dose range 25 to 250 mg NRL-1049, fasting state, read-out: mean AUCinf): 3.81 to 78.2 ng·h/mL; Cmax (both sexes, human, plasma, oral, range over dose range 25 to 250 mg NRL-1049, fasting state, read-out: mean Cmax): 3.66 to 58 ng/mL; half-life (both sexes, human, plasma, oral, range over the dose groups 25 to 250 mg NRL-1049, fasting state, read-out: mean elimination half-life): 31.2 to 75.6 min; AUC(0-t) (both sexes, human, plasma, po, 25 mg, plasma NRL-1049, mean, 25 mg NRL-1049 single oral, fasting, Cohort 1, N = 6, read-out: AUC0-T): 3.03 ng·h/mL; AUC (both sexes, human, plasma, po, 25 mg, plasma NRL-1049, mean, 25 mg NRL-1049 single oral, fasting, Cohort 1, N = 6, read-out: AUC0-Tmax): 1.26 ng·h/mL; AUC(0-inf) (both sexes, human, plasma, po, 25 mg, plasma NRL-1049, mean, 25 mg NRL-1049 single oral, fasting, Cohort 1, N = 6, read-out: AUCinf): 3.81 ng·h/mL; Cmax (both sexes, human, plasma, po, 25 mg, plasma NRL-1049, mean, 25 mg NRL-1049 single oral, fasting, Cohort 1, N = 6, read-out: Cmax): 3.66 ng/mL; Vd/F (both sexes, human, plasma, po, 25 mg, plasma NRL-1049, mean, 25 mg NRL-1049 single oral, fasting, Cohort 1, N = 6): 5500 L; Tmax (both sexes, human, plasma, po, 25 mg, plasma NRL-1049, 25 mg NRL-1049 single oral, fasting, Cohort 1, N = 6): 45 min; AUC(0-t) (both sexes, human, plasma, po, 75 mg, plasma NRL-1049, mean, 75 mg NRL-1049 single oral, fasting, Cohort 2, N = 6, read-out: AUC0-T): 13.8 ng·h/mL; AUC (both sexes, human, plasma, po, 75 mg, plasma NRL-1049, mean, 75 mg NRL-1049 single oral, fasting, Cohort 2, N = 6, read-out: AUC0-Tmax): 2.88 ng·h/mL; AUC(0-inf) (both sexes, human, plasma, po, 75 mg, plasma NRL-1049, mean, 75 mg NRL-1049 single oral, fasting, Cohort 2, N = 6, read-out: AUCinf): 15.2 ng·h/mL; Cmax (both sexes, human, plasma, po, 75 mg, plasma NRL-1049, mean, 75 mg NRL-1049 single oral, fasting, Cohort 2, N = 6, read-out: Cmax): 16.9 ng/mL; Vd/F (both sexes, human, plasma, po, 75 mg, plasma NRL-1049, mean, 75 mg NRL-1049 single oral, fasting, Cohort 2, N = 6): 6020 L; Tmax (both sexes, human, plasma, po, 75 mg, plasma NRL-1049, 75 mg NRL-1049 single oral, fasting, Cohort 2, N = 6): 30 min; AUC(0-t) (both sexes, human, plasma, po, 150 mg, plasma NRL-1049, mean, 150 mg NRL-1049 single oral, Fasted, Cohort 3, N = 6, read-out: AUC0-T): 34.8 ng·h/mL; AUC (both sexes, human, plasma, po, 150 mg, plasma NRL-1049, mean, 150 mg NRL-1049 single oral, Fasted, Cohort 3, N = 6, read-out: AUC0-Tmax): 6.16 ng·h/mL; AUC(0-inf) (both sexes, human, plasma, po, 150 mg, plasma NRL-1049, mean, 150 mg NRL-1049 single oral, Fasted, Cohort 3, N = 6, read-out: AUCinf): 36.2 ng·h/mL; Cmax (both sexes, human, plasma, po, 150 mg, plasma NRL-1049, mean, 150 mg NRL-1049 single oral, Fasted, Cohort 3, N = 6, read-out: Cmax): 34.9 ng/mL; Vd/F (both sexes, human, plasma, po, 150 mg, plasma NRL-1049, mean, 150 mg NRL-1049 single oral, Fasted, Cohort 3, N = 6): 10800 L; AUC(0-t) (both sexes, human, plasma, po, 150 mg, plasma NRL-1049, mean, 150 mg NRL-1049 single oral, Fed, Cohort 3, N = 10, read-out: AUC0-T): 42 ng·h/mL
